Source: US10294488B2, “Herbicide-metabolizing cytochrome P450 monooxygenases” (BASF SE, priority 2012, dated 2019)

Columns and labels:
AmCYP03_1 (Seq ID 4) = assay: Herbicide degradation in transgenic yeast cells expressing cytochrome P450 AmCYP03_1; format: in vitro ADME, Alopecurus myosuroides; settings: transgenic yeast cells (S. cerevisiae BJ5459) expressing AmCYP03_1, Seq ID 4, recovery of herbicide in reference to control, UPLC-MS/MS
Source text: (§1) The cDNA of CYP450 monooxygenase genes were synthesized with an optimized codon usage for yeast, cloned via uniqueBamHI-SalI restriction sites in the low copy pESC-ura expression vector (Agilent Technologies). Constructs were transformed into S. cerevisiae wild type strain BJ5459 (MATa ura3-5 trp lys2-801 leu2Δ1 his3Δ200 pep4Δ::HIS3 prb1Δ1.6R can1 GAL cir^+; ATCC 208284) using a Yeast Maker Transformation System from Clontech and verified by colony PCR. Positive clones were selected on minimal synthetic-defined media (SD) supplemented with appropriate dropout solution. The strain had no obvious phenotypes. Cells were induced in SG-Ura medium (same composition as SD but with galactose instead of glucose) for 24 h (Pompon et al., Methods in Enzymology 272:51-64 (1996); Urban et al., Eur. J. Biochem. 222:[…] (1994)). Optimal heterologous protein expression was assayed using Western Blot analysis.
(§2) 96 deep well growth plates (STARLAB GmbH) charged with 700 μL SDA medium are inoculated with the respective yeast strains from cryostock and incubated at 30° C., 400 rpm. After 48 h, an aliquot is transferred into a new plate with fresh SDA medium 400 rpm. After 4 h the cultures are spun down, the supernatant discarded and the pellets resuspended in 700 μL pre-warmed SGA media to induce protein expression at 30° C. and 400 rpm. After an incubation time of 24 h, 7 μL herbicide solution (500 μM DMSO stock solution) or solvent control is added to the yeast culture incubated for additional 24 h. The herbicide conversion is stopped by adding 700 μL acetonitrile followed by ultrasonification. The homogenate is prepared for UPLC-MS/MS analysis. The degradation rate was calculated by the determination of the recovery of the herbicide in reference to the control.

AmCYP03b (Seq ID 6) = assay: Herbicide degradation in transgenic yeast cells expressing cytochrome P450 AmCYP03b; format: in vitro ADME, Alopecurus myosuroides; settings: transgenic yeast cells (S. cerevisiae BJ5459) expressing AmCYP03b, recovery of herbicide in reference to control, UPLC-MS/MS
Source text: as §1, §2

AmCYP04 (Seq ID 27) = assay: Herbicide degradation in transgenic yeast cells expressing cytochrome P450 AmCYP04; format: in vitro ADME, Alopecurus myosuroides; settings: transgenic yeast cells (S. cerevisiae BJ5459) expressing AmCYP04, Seq ID 27, recovery of herbicide in reference to control, UPLC-MS/MS
Source text: as §1, §2

AmCYP12_1 (Seq ID 45) = assay: Herbicide degradation in transgenic yeast cells expressing cytochrome P450 AmCYP12_1; format: in vitro ADME, Alopecurus myosuroides; settings: transgenic yeast cells (S. cerevisiae BJ5459) expressing AmCYP12_1, Seq ID 45, recovery of herbicide in reference to control, UPLC-MS/MS
Source text: as §1, §2

AmCYP01 (Seq ID 2) = assay: Herbicide degradation in transgenic yeast cells expressing cytochrome P450 AmCYP01; format: in vitro ADME, Alopecurus myosuroides; settings: transgenic yeast cells (S. cerevisiae BJ5459) expressing AmCYP01, Seq ID 2, recovery of herbicide in reference to control, UPLC-MS/MS
Source text: as §1, §2

[1] = test system: transgenic plants expressing Am_CYP03 (SEQ ID 4); assay: Greenhouse herbicide tolerance of transgenic plants expressing Am_CYP03 (FIG. 1); format: in vivo, Arabidopsis thaliana; settings: plants expressing Am_CYP03 (SEQ ID 4) vs wildtype, different application rates (g/ha)
Protocol: (§3) Transgenic Arabidopsis thaliana plants were assayed for improved tolerance to saflufenacil, 1,5-dimethyl-6-thioxo-3-(2,2,7-trifluoro-3-oxo-4-(prop-2-ynyl)-3,4-dihydro-2H-benzo[b][1,4]oxazin-6-yl)-1,3,5-triazinane-2,4-dione (CAS 1258836-72-4), chlorotoluron, pendimethalin, flumioxazin, butafenacil, acifluorfen, lactofen, bifenox, diuron, sulfentrazon, tepraloxydim, coumarone-derivative herbicides, azine-derivative herbicides in 48-well plates. Therefore, T2 seeds are surface sterilized by stirring for 5 min in ethanol+water (70+30 by volume), rinsing one time with ethanol+water (70+30 by volume) and two times with sterile, deionized water. The seeds are resuspended in 0.1% agar dissolved in water (w/v) Four to five seeds per well are plated on solid nutrient medium consisting of half-strength murashige skoog nutrient solution, pH 5.8 (Murashige and Skoog (1962) Physiologia Plantarum 15: 473-497). Compounds are dissolved in dimethylsulfoxid (DMSO) and added to the medium prior solidification (final DMSO concentration 0.1%). Multi well plates are incubated in a growth chamber at 22° C., 75% relative humidity and 110 μmol Phot*m^2*s^−1 with 14:10 h light: dark photoperiod. Growth inhibition is evaluated seven to ten days after seeding in comparison to wild type plants. Additionally, transgenic T1 Arabidopsis plants were tested for improved tolerance to herbicides in greenhouse studies with the following herbicides: saflufenacil, 1,5-dimethyl-6-thioxo-3-(2,2,7-trifluoro-3-oxo-4-(prop-2-ynyl)-3,4-dihydro-2H-benzo[b][1,4]oxazin-6-yl)-1,3,5-triazinane-2,4-dione (CAS 1258836-72-4), chlorotoluron, pendimethalin, flumioxazin, butafenacil, acifluorfen, lactofen, bifenox, diuron, sulfentrazone, tepraloxydim, coumarone-derivative herbicides, azine-derivative herbicides.

[2] = test system: transgenic plants expressing Am_CYP04 (SEQ ID 27); assay: Greenhouse herbicide tolerance of transgenic plants expressing Am_CYP04 (FIG. 2); format: in vivo, Arabidopsis thaliana; settings: plants expressing Am_CYP04 (SEQ ID 27) vs wildtype, different application rates (g/ha)
Protocol: as §3

| Compound | Degradation rate of listed herbicidal compounds within 24 h (AmCYP03_1 (Seq ID 4)) | Degradation rate of listed herbicidal compounds within 24 h (AmCYP03b (Seq ID 6)) | Degradation rate of listed herbicidal compounds within 24 h (AmCYP04 (Seq ID 27)) | Degradation rate of listed herbicidal compounds within 24 h (AmCYP12_1 (Seq ID 45)) | Degradation rate of listed herbicidal compounds within 24 h (AmCYP01 (Seq ID 2)) | Phenotype (injury) of transgenic plants compared to non-transgenic plants [1] | Phenotype (injury) of transgenic plants compared to non-transgenic plants [2] |
| --- | --- | --- | --- | --- | --- | --- | --- |
| C#CCN1C(=O)C(F)(F)Oc2cc(F)c(-n3c(=O)n(C)c(=S)n(C)c3=O)cc21 [1,5-dimethyl-6-thioxo-3-(2,2,7-trifluoro-3-oxo-4-(prop-2-ynyl)-3,4-dihydro-2H-benzo[b][1,4]oxazin-6-yl)-1,3,5-triazinane-2,4-dione, reference compound] | 23 | 21 | 24 | 20 | 17 | much less injured | much less injured |
| O=S1(=O)C(c2c(Cl)cc(Cl)nc2Cl)=C(O)c2ncccc2N1CC(F)F [Coumarone-derivative 1, 1-(2,2-difluoroethyl)-2,2-dioxo-3-(2,4,6-trichloro-3-pyridyl)pyrido[3,2-c]thiazin-4-ol] | 25 | 18 | 31 | 10 | 0 | – | – |
| N#Cc1ccc(C2=C(O)c3ncccc3N(CC(F)F)S2(=O)=O)c(C(F)(F)F)c1 [Coumarone-derivative 2, 4-[1-(2,2-difluoroethyl)-4-hydroxy-2,2-dioxo-pyrido[3,2-c]thiazin-3-yl]-3-(trifluoromethyl)benzonitrile] | 16 | 7 | 0 | 24 | 0 | – | – |
| O=S1(=O)Cc2cccnc2C(O)=C1c1ccccc1C(F)(F)F [Coumarone-derivative 3, 6,6-dioxo-7-[2-(trifluoromethyl)phenyl]-5H-thiopyrano[4,3-b]pyridin-8-ol] | 0 | 0 | 9 | 27 | 0 | – | – |
| O=S1(=O)Oc2cccnc2C(O)=C1c1c(Cl)cccc1C(F)(F)F [Coumarone-derivative 4, 3-[2-chloro-6-(trifluoromethyl)phenyl]-2,2-dioxo-oxathiino[5,6-b]pyridin-4-ol] | 4 | 7 | 12 | 4 | 0 | – | – |
| CC1(C)c2cccnc2C(O)=C(c2ccc(Cl)nc2Cl)S1(=O)=O [Coumarone-derivative 5, 7-(2,6-dichloro-3-pyridyl)-5,5-dimethyl-6,6-dioxo-thiopyrano[4,3-b]pyridin-8-ol] | 2 | 17 | 22 | 15 | 14 | – | – |
| CC1=NOC(c2c(Cl)ccc(C3=C(O)c4ncccc4C(C)(C)S3(=O)=O)c2Cl)C1 (stereo not shown) [Coumarone-derivative 6, 7-[2,4-dichloro-3-(3-methyl-4,5-dihydroisoxazol-5-yl)phenyl]-5,5-dimethyl-6,6-dioxo-thiopyrano[4,3-b]pyridin-8-ol] | 2 | 0 | 0 | 4 | 1 | – | – |
| COCCOCc1c(Cl)ccc(C2=C(O)c3ncccc3C(C)(C)S2(=O)=O)c1Cl [Coumarone-derivative 7, 7-[2,4-dichloro-3-(2-methoxyethoxymethyl)phenyl]-5,5-dimethyl-6,6-dioxo-thiopyrano[4,3-b]pyridin-8-ol] | 14 | 6 | 7 | 5 | 0 | – | – |
| COc1ccc(C2=C(O)c3ncccc3C(C)(C)S2(=O)=O)c(C(F)(F)F)n1 [Coumarone-derivative 8, 7-[6-methoxy-2-(trifluoromethyl)-3-pyridyl]-5,5-dimethyl-6,6-dioxo-thiopyrano[4,3-b]pyridin-8-ol] | 10 | 0 | 0 | 3 | 0 | – | – |
| O=S1(=O)C(c2c(Cl)cc(Cl)nc2Cl)=C(O)c2ncccc2N1CC(F)F [Coumarone-derivative 9, 1-(2,2-difluoroethyl)-2,2-dioxo-3-(2,4,6-trichloro-3-pyridyl)pyrido[3,2-c]thiazin-4-ol] | 12 | 5 | 18 | 0 | 0 | – | – |
| CN(c1c(Cl)ccc(C2=C(O)c3ncccc3C(C)(C)S2(=O)=O)c1Cl)S(C)(=O)=O [Coumarone-derivative 10, N-[2,6-dichloro-3-(8-hydroxy-5,5-dimethyl-6,6-dioxo-thiopyrano[4,3-b]pyridin-7-yl)phenyl]-N-methyl-methanesulfonamide] | 15 | 9 | 19 | 0 | 0 | – | – |
| Cc1c(Cl)ccc(Cl)c1C1=C(O)c2ncccc2C(C)(C)S1(=O)=O [Coumarone-derivative 11, 7-(3,6-dichloro-2-methyl-phenyl)-5,5-dimethyl-6,6-dioxo-thiopyrano[4,3-b]pyridin-8-ol] | 0 | 18 | 0 | 0 | 0 | – | – |
| CCC(CC)Nc1c([N+](=O)[O-])cc(C)c(C)c1[N+](=O)[O-] [pendimethalin, reference compound] | 24 | 24 | 25 | 16 | 13 | – | – |
